According to patent US5196352A, “New FK-506 cytosolic binding protein” (Merck & Co., Inc., priority 1991, dated 1993):

Key:
[1] = molecular target: purified calf thymus cyclophilin (Bos taurus, UniProt P62935); test: LH-20 binding assay with purified cyclophilin; conditions: for Bound (cpm), specifically bound: cyclophilin, 100 ng, 6.0 nM labeled compound
JURKAT cytosol [2] = test: LH-20 binding assay with JURKAT cytosol; parameters: species or system human; conditions: for Bound (cpm), specifically bound: 0.5 nM labeled compound; for effect of heating on binding to JURKAT cytosol (in words): heated cytosol
[3] = molecular target: HCB protein PPIase activity (Homo sapiens, UniProt P62942); test: PPIase assay of HCB protein (N-succinyl-Ala-Ala-Pro-Phe-p-nitroanilide, chymotrypsin coupled)
Experimental: (§1) Briefly, the PPIase assay measures the "cis" to "trans" isomerization of the proline-alanine peptide bond in the peptide, N-succinyl-Ala-Ala-Pro-Phe-p-nitroanilide. When in the "trans" form, the peptide is readily cleaved by chymotrypsin and the appearance of p-nitroanilide can be quantitated spectrophotometrically at 405 nm.
(§2) After 1.0 minutes, 30 ul of 2.0 mg/ml chymotrypsin (Sigma) in 100 mM Tris-HCl, pH 7.8 was added. After brief mixing, the absorbance was monitored at 405 nm in either a Perkin-Elmer 4B or Beckman DU 68 spectrophotometer. Absorbance measurements were taken at 3 or 5 second intervals for 4 minutes. A plot of Abs405 [steady state]--Abs405[time=t] versus time was made on semi-log paper. From the straight line, the time constant for Abs405 [steady state]--Abs405 [time=t] to fall by l/e was calculated. The reciprocal of this constant yields the rate constant k.

[4] = tested on: IL-2 secretion in JURKAT cells; test: Inhibition of IL-2 secretion in JURKAT cells stimulated with PMA and ionomycin (ELISA); type: cell-based, human
Experimental: Inhibition of IL-2 secretion in JURKAT cells stimulated with PMA and ionomycin by FK-506 and [^3 H]dihydro FK-506. JURKAT cells (equivalent to those available from the ATCC, supra) were cultured in RPMI 1640 media (Cellgro, Mediatech, Wash. D.C.) containing 1% Pen/Strep (Gibco), 1 mM Glutamine and 10% heat-inactivated fetal calf serum (Hazleton). For assay of IL-2 secretion by JURKAT cells, cells were cultured for 16 hr. in 96-well microtiter plates (Costar) at […] cells/ml in the above media containing 10 ng/ml of PMA (Sigma) and 5 μM ionomycin (Calbiochem) along with the concentrations of FK-506 or [^3 H]FK-506 indicated.

JURKAT cytosol [5] = molecular target: T1, JURKAT cytosol (Homo sapiens, UniProt P62942); test: LH-20 binding assay with JURKAT cytosol
T1 construct: endogenous in cells; host or cells: JURKAT (human T-cell line), crude cytosol

[6] = tested on: low molecular weight cytosolic component; test: Direct binding of [3H]FK-506 to JURKAT cytosol, complex by HPLC gel filtration, competition with unlabeled compound; parameters: species or system human; conditions: 200 fold molar excess of unlabeled compound; 16 nM [3H]FK-506, 200 μg cytosol protein
Experimental: A cell-free extract was prepared from JURKAT cells by lysing […] cells in 0.5 ml of 10 mM Tris-HCl, pH 7.5 containing 1 mM MgCl as described in the legend for FIG. 3.

[7] = tested on: cyclophilin PPIase activity; conditions: concentration of 1 uM
Experimental: as §1, §2

[8] = JURKAT cytosol 40 μg heated 56 C., 15 min.

purified calf thymus cyclophilin, sequence (P62935 whole entry): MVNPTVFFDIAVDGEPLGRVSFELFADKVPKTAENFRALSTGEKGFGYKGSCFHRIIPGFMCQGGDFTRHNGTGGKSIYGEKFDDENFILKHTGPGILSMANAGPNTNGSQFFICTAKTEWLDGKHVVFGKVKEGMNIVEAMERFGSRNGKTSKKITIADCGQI
HCB protein PPIase activity, sequence (P62942 whole entry): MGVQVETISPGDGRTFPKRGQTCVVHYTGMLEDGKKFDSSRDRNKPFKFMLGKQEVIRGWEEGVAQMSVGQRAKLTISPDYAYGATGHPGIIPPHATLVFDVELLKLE
T1 sequence (P62942 2-108): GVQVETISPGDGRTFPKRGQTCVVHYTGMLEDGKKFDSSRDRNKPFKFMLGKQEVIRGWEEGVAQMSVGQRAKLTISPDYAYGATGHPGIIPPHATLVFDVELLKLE

| SMILES | Bound (cpm), specifically bound [1] | Bound (cpm), specifically bound (JURKAT cytosol [2]; [8]) | Bound (cpm), specifically bound (JURKAT cytosol [2]; JURKAT cytosol, 40 μg) | effect of heating on binding to JURKAT cytosol (in words) (JURKAT cytosol [2]) | inhibition of HCB protein PPIase activity (in words) [3] | IC50 ([4]; Homo sapiens, Jurkat, 16 h, read-out: concentration of inhibiting IL-2 secretion in JURKAT) [nM] | inhibition of IL-2 secretion in JURKAT cells (in words) ([4]; PMA and ionomycin) | potency as inhibitor of IL-2 secretion, times less potent than the parent compound ([4]; relative to FK-506, JURKAT cells, PMA and ionomycin) [times] | specific binding to purified calf thymus cyclophilin (in words) ([1]; LH-20 assay) | Kd (JURKAT cytosol [5]) [nM] | inhibition of the formation of the [^3 H]FK-506 complex [6] [%] | inhibition of cyclophilin PPIase activity (in words) [7] |
| --- | --- | --- | --- | --- | --- | --- | --- | --- | --- | --- | --- | --- |
| [3H]C(C)C([3H])C[C@@H](C)[C@@H](O)[C@H]1C(=O)N[C@@H](CC)C(=O)N(C)CC(=O)N(C)[C@@H](CC(C)C)C(=O)N[C@@H](C(C)C)C(=O)N(C)[C@@H](CC(C)C)C(=O)N[C@@H](C)C(=O)N[C@H](C)C(=O)N(C)[C@@H](CC(C)C)C(=O)N(C)[C@@H](CC(C)C)C(=O)N(C)[C@@H](C(C)C)C(=O)N1C (some centres unmarked) [[^3 H]CsA, [^3 H]-dihydro CsA] | 20,988 cpm | 0 cpm | 5,988 cpm | completely aborgated | – | – | – | – | – | – | – | – |
| CCC[C@@H]1/C=C(\C)C[C@H](C)C[C@H](OC)[C@H]2O[C@@](O)(C(=O)C(=O)N3CCCC[C@H]3C(=O)O[C@H](/C(C)=C/[C@@H]3CC[C@@H](O)[C@H](OC)C3)[C@H](C)[C@@H](O)CC1=O)[C@H](C)C[C@@H]2OC [Dihydro-FK-506] | – | – | – | – | specifically inhibits | – | – | – | – | – | – | – |
| [3H]CC([3H])C[C@@H]1/C=C(\C)C[C@H](C)C[C@H](OC)[C@H]2O[C@@](O)(C(=O)C(=O)N3CCCC[C@H]3C(=O)O[C@H](/C(C)=C/[C@@H]3CC[C@@H](O)[C@H](OC)C3)[C@H](C)[C@@H](O)CC1=O)[C@H](C)C[C@@H]2OC (some centres unmarked) [[^3 H]FK-506, [^3 H]-dihydro FK-506] | 0 cpm | 15,315 cpm | 13,585 cpm | heat stable | – | 1.1 | potent inhibitor | 5 | could not detect specific binding | 4 | – | – |
| C=CC[C@@H]1/C=C(\C)C[C@H](C)C[C@H](OC)[C@H]2O[C@@](O)(C(=O)C(=O)N3CCCC[C@H]3C(=O)O[C@H](/C(C)=C/[C@@H]3CC[C@@H](O)[C@H](OC)C3)[C@H](C)[C@@H](O)CC1=O)[C@H](C)C[C@@H]2OC [FK-506] | – | – | – | – | specifically inhibited | – | – | – | – | – | 90 | no effect |
